# pIC50: −log10 of the molar value.
# Target: T1, human recombinant PAK1-KD protein (Homo sapiens, UniProt Q13153)
# T1 construct: made in house; host or cells: Tini [sic] cells infected with recombinant baculovirus
# Experiment: PAK1-KD (kinase domain) IC50 Zlyte assay
# Type: biochemical
# Details: Z'-LYTE FRET peptide substrate (Ser/Thr19), 60-minute incubation at 22° C.
# From the text: Determination of the activity of PAK activity of a compound of formula I was accomplished using the PAK1 inhibition assay in Biological Example 1.
# PAK1-KD (Kinase Domain) IC50 Zlyte Assay Protocol
# Activity of human recombinant PAK1-KD protein may be assessed in vitro by assay of the phosphorylation of a FRET peptide substrate. Catalytically active human recombinant PAK1-KD protein is obtained by purification from Tini cells infected with a human PAK1-KD recombinant baculovirus expression vector.
# The activity/inhibition of PAK1-KD was estimated by measuring the phosphorylation of a FRET peptide substrate (Ser/Thr19) labeled with Coumarin and Fluorescein using Z′-LYTE™ assay (Invitrogen). The peptide substrate is a consensus sequence (KKRNRRLSVA) based on various PAK substrates reported in the scientific literature. The 10 μL assay mixtures contained 50 mM HEPES (pH 7.5), 0.01% Brij-35, 10 mM MgCl2, 1 mM EGTA, 2 μM FRET peptide substrate, and 20 pM PAK1-KD. Incubations were carried out at 22° C. in black polypropylene 384-well plates (Corning Costar). […] Following the 60-minute incubation, the assay mixtures were quenched by the addition of 5 μL of Z′-LYTE™ development reagent, and 1 hour later the emissions of coumarin (445 nm) and fluorescein (520 nm) were determined after excitation at 400 nm using an Envision plate reader (Perkin Elmer). An emission ratio (445 nm/520 nm) was determined to quantify the degree of substrate phosphorylation.
# T1 sequence (Q13153 270-521 limits assumed): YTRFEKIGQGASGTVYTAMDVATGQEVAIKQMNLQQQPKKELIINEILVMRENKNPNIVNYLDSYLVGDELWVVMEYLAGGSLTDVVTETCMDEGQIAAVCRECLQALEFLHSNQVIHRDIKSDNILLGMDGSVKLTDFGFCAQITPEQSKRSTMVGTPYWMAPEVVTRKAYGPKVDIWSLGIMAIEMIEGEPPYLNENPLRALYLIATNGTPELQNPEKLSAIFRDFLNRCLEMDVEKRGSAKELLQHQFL
row,pIC50,SMILES
1,5.77,"CCN1CCC(CCNc2ncc3cc(-c4cccc(S(C)(=O)=O)c4)c(=O)n(CC)c3n2)CC1 [Compound I-2, 8-ethyl-2-[2-(1-ethyl-4-piperidyl)ethylamino]-6-(3-methylsulfonylphenyl)pyrido[2,3-d]pyrimidin-7-one]"
2,5.46,"CCn1c(=O)c(-c2ccc(S(C)(=O)=O)nc2)cc2cnc(NCCC3CCN(C)CC3)nc21 [Compound I-11, 8-ethyl-2-[2-(1-methyl-4-piperidyl)ethylamino]-6-(6-methylsulfonyl-3-pyridyl)pyrido[2,3-d]pyrimidin-7-one]"
3,5.52,"CCn1c(=O)c(-c2ccc(S(=O)(=O)C3CC3)cc2)cc2cnc(NCCC3CCN(C)CC3)nc21 [Compound I-9, 6-(4-cyclopropylsulfonylphenyl)-8-ethyl-2-[2-(1-methyl-4-piperidyl)ethylamino]pyrido[2,3-d]pyrimidin-7-one]"
4,< 5.35,"CCn1c(=O)c(-c2ccc(S(C)(=O)=O)cc2)cc2cnc(NCCC3CCN(C)CC3)nc21 [Compound I-7, 8-ethyl-2-[2-(1-methyl-4-piperidyl)ethylamino]-6-(4-methylsulfonylphenyl)pyrido[2,3-d]pyrimidin-7-one]"
5,< 5.35,"CCN1CCC(CCNc2ncc3cc(-c4ccc(S(C)(=O)=O)cc4)c(=O)n(CC)c3n2)CC1 [Compound I-6, 8-ethyl-2-[2-(1-ethyl-4-piperidyl)ethylamino]-6-(4-methylsulfonylphenyl)pyrido[2,3-d]pyrimidin-7-one]"
6,< 5.35,"CCN1CCC(CCNc2ncc3cc(-c4ccccc4S(C)(=O)=O)c(=O)n(CC)c3n2)CC1 [Compound I-5, 8-ethyl-2-[2-(1-ethyl-4-piperidyl)ethylamino]-6-(2-methylsulfonylphenyl)pyrido[2,3-d]pyrimidin-7-one]"
7,6.06,"CCn1c(=O)c(-c2ccc([S+]([O-])C3CC3)cc2)cc2cnc(NCCC3CCN(C)CC3)nc21 (centres unmarked) [Compound I-12, 6-(4-cyclopropylsulfinylphenyl)-8-ethyl-2-[2-(1-methyl-4-piperidyl)ethylamino]pyrido[2,3-d]pyrimidin-7-one]"
8,< 5.35,"CCn1c(=O)c(-c2ccc([S+](C)[O-])cc2)cc2cnc(NCCC3CCN(C)CC3)nc21 (centres unmarked) [Compound I-8, 8-ethyl-2-[2-(1-methyl-4-piperidyl)ethylamino]-6-(4-methylsulfinylphenyl)pyrido[2,3-d]pyrimidin-7-one]"
9,< 5.35,"CCNc1ncc2cc(-c3cccc(S(C)(=O)=O)c3)c(=O)n(CC)c2n1 [Compound I-3, 8-Ethyl-2-(ethylamino)-6-(3-methylsulfonylphenyl)pyrido[2,3-d]pyrimidin-7-one]"
10,7.17,"CCn1c(=O)c(-c2ccc(S(=O)(=O)C3CC3)cc2Cl)cc2cnc(NCCC3CCN(C)CC3)nc21 [Compound I-13, 6-(2-chloro-4-cyclopropylsulfonyl-phenyl)-8-ethyl-2-[2-(1-methyl-4-piperidyl)ethylamino]pyrido[2,3-d]pyrimidin-7-one]"
11,5.85,"CCn1c(=O)c(-c2cccc(S(C)(=O)=O)c2)cc2cnc(NCCC3CCN(C)CC3)nc21 [Compound I-4, 8-ethyl-2-[2-(1-methyl-4-piperidyl)ethylamino]-6-(3-methylsulfonylphenyl)pyrido[2,3-d]pyrimidin-7-one]"
12,< 5.35,"CCn1c(=O)c(-c2ccc(S(C)(=O)=O)cc2)cc2cnc(N[C@H]3[C@@H]4CNC[C@@H]43)nc21 [Compound I-10, 2-[[(1R,5S)-3-azabicyclo[3.1.0]hexan-6-yl]amino]-8-ethyl-6-(4-methylsulfonylphenyl)pyrido[2,3-d]pyrimidin-7-one]"
13,6.76,"CCNc1ncc2cc(-c3ccc(S(C)(=O)=O)cc3Cl)c(=O)n(C[C@H]3CC[C@H](N)CC3)c2n1 [Compound I-14, 8-(((1R,4R)-4-aminocyclohexyl)methyl)-6-(2-chloro-4-(methylsulfonyl)phenyl)-2-(ethylamino)pyrido[2,3-d]pyrimidin-7(8H)-one]"
14,< 5.35,"CCn1c(=O)c(-c2ccccc2S(C)(=O)=O)cc2cnc(NCCC3CCN(C)CC3)nc21 [Compound I-1, 8-Ethyl-2-((2-(1-methylpiperidin-4-yl)ethyl)amino)-6-(2-(methylsulfonyl)phenyl)pyrido[2,3-d]pyrimidin-7(8H)-one]"
